Reference: publication PMC6102140, “Structural insight into the human mitochondrial tRNA purine N1-methyltransferase and ribonuclease P complexes” (The Journal of Biological Chemistry, 2018)

Key:
MRPP1MT+C(Δ194) = target: T1, MRPP1MT+C(Δ194) (Homo sapiens, UniProt Q7L0Y3); test: differential scanning fluorimetry; format: binding; conditions: pH 7.5, 150 mM NaCl
T1 construct: gene TRMT10C; methyltransferase domain with C extension, residues 195-403, N-terminal His6 vector, E. coli; monomer
T1 sequence (Q7L0Y3 195-403): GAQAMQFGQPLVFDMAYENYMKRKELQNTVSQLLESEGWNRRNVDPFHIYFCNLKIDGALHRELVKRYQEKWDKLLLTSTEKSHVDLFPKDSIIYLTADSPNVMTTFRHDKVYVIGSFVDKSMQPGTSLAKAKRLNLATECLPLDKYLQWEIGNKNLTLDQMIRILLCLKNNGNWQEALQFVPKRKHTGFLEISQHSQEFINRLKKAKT

[1] = target: T2, MRPP1ΔMTS–MRPP2 complex (SAM site / MTase activity of MRPP1) (Homo sapiens, UniProt Q7L0Y3); test: differential scanning fluorimetry; format: binding; conditions: pH 7.5, 150 mM NaCl
T2 construct: gene TRMT10C; co-expressed in E. coli; His-tagged mature MRPP1 (40-403) and untagged full-length MRPP2; 2:4 complex, 194 kDa by SEC-MALS; with 3-hydroxyacyl-CoA dehydrogenase type-2
T2 sequence (Q7L0Y3 40-403): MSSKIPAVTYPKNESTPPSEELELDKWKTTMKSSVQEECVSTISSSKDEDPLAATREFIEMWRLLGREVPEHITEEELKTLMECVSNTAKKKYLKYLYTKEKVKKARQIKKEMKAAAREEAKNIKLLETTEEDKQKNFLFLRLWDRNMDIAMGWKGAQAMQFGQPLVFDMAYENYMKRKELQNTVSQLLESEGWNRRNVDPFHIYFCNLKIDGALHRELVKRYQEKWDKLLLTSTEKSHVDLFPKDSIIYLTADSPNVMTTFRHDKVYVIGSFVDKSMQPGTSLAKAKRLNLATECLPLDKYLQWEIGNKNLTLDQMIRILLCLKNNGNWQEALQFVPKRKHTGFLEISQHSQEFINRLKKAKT
T2 sequence (Q99714 2-261 partner): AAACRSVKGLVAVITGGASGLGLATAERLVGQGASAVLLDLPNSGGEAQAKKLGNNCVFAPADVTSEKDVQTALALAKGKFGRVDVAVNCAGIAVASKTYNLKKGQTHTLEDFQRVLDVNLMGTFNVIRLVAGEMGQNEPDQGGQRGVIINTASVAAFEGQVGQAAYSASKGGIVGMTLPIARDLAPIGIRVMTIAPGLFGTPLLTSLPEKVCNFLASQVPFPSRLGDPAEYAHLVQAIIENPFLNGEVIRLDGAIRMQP

MRPP1MT+C(Δ202) = target: T3, MRPP1MT+C(Δ202) (Homo sapiens, UniProt Q7L0Y3); test: X-ray crystal structure, […] Å; format: binding; conditions: co-crystallised with SAM, 4 °C
T3 construct: gene TRMT10C; methyltransferase domain with C extension, residues 203-403, N-terminal His6 vector, E. coli; residues 380-403 disordered; monomer
T3 sequence (Q7L0Y3 203-403): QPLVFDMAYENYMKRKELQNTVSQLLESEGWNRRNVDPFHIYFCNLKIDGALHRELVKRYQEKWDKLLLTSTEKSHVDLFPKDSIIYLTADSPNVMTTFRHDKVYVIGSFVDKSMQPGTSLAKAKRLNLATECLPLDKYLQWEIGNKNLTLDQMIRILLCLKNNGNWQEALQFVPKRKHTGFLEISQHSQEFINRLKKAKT

MRPP1ΔMTS = target: T4, MRPP1ΔMTS (Homo sapiens, UniProt Q7L0Y3); test: differential scanning fluorimetry; format: binding; conditions: 7.5 mM SAM; pH 7.5, 150 mM NaCl
T4 construct: gene TRMT10C; mature protein without mitochondrial targeting signal, residues 40-403, N-terminal His6 vector, E. coli; monomer/dimer mixture
T4 sequence (Q7L0Y3 40-403): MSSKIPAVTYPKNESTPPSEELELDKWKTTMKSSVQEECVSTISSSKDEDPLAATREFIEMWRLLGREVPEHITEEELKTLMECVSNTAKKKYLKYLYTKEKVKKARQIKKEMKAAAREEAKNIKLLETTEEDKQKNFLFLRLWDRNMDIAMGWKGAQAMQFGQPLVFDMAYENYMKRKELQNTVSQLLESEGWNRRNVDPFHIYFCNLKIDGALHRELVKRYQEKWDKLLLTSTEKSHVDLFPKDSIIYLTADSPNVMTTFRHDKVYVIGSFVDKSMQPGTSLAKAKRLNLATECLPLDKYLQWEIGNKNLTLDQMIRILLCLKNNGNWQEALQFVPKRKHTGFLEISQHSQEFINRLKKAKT

[2] = target: MRPP1N (N domain of MRPP1), expressed alone (human) (UniProt Q7L0Y3); test: SEC; analytical SEC of single proteins, Superdex S200 10/300 GL (or KW403-4F), apparent mass from standards of known Mr, n = 3
[3] = target: T5, MRPP1ΔMTS–MRPP2 complex (SDR activity of MRPP2) (Homo sapiens, UniProt Q99714); test: differential scanning fluorimetry; format: binding; conditions: pH 7.5, 150 mM NaCl
T5 construct: gene HSD17B10; co-expressed in E. coli; His-tagged mature MRPP1 (40-403) and untagged full-length MRPP2; 2:4 complex, 194 kDa by SEC-MALS; with tRNA methyltransferase 10 homolog C
T5 sequence (Q99714 2-261): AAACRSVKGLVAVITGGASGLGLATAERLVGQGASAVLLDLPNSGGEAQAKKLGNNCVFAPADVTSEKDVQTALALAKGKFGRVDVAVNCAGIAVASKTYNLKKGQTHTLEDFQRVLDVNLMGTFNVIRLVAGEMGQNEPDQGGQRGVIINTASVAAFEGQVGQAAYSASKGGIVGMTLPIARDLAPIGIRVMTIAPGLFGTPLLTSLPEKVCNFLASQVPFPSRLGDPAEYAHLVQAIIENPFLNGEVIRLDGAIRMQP
T5 sequence (Q7L0Y3 40-403 partner): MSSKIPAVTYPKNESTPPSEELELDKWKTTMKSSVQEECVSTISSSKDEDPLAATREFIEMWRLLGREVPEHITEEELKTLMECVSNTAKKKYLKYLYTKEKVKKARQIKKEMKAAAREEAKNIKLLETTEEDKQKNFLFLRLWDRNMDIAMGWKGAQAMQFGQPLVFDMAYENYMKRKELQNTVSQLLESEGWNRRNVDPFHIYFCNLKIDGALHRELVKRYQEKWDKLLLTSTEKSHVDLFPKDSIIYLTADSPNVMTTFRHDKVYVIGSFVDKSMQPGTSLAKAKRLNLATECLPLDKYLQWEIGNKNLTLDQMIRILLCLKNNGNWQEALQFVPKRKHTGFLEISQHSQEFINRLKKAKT

[4] = target: T6, MRPP2, untagged, co-expressed with His-tagged MRPP1 constructs (bicistronic plasmid) (human), Q99714; test: SEC-SAXS; KW403-4F column in line with SAXS, 4.5 mg/ml; 50 mM sodium phosphate pH 7.4, 300 mM NaCl, 5% glycerol, 1% sucrose, 0.5 mM TCEP (for MRPP1, MRPP2 and MRPP1–MRPP2; buffer for MRPP3 alone not told); no tRNA; conditions: remark: other sources report otherwise
T6 chain: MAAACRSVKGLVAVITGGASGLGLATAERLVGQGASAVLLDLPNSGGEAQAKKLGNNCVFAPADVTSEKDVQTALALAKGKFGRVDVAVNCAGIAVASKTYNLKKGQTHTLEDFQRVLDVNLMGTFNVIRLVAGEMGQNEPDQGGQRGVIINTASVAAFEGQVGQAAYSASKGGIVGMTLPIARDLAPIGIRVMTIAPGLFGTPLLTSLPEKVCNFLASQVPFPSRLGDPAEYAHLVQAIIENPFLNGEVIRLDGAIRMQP

[5] = target: T7, MRPP2 (HSD17B10), expressed alone, tag removed (human), Q99714; test: as above; conditions: remark: other sources report otherwise
T7 chain: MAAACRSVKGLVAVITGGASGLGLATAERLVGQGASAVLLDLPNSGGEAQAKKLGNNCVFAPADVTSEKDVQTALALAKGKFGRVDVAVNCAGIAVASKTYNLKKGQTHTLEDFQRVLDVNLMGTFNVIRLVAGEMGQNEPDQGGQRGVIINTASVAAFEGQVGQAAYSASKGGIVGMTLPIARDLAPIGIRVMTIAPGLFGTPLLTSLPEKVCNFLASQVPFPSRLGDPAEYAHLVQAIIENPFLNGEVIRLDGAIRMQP

[6] = substrate: CC(=O)[C@H]1CC[C@H]2[C@@H]3CC[C@H]4C[C@H](O)CC[C@]4(C)[C@H]3CC[C@]12C; test: 3alpha-HSD (SDR) activity, fluorescence, Michaelis-Menten fit; format: biochemical, Homo sapiens; conditions: MRPP2 alone
Text: 3alpha-HSD (SDR) activity, fluorescence, Michaelis-Menten fit on MRPP2 | measured using the neurosteroid allopregnanolone as MRPP2 substrate

[7] = substrate: CC(=O)[C@H]1CC[C@H]2[C@@H]3CC[C@H]4C[C@H](O)CC[C@]4(C)[C@H]3CC[C@]12C; test: as above; format: biochemical, Homo sapiens; conditions: in complex with MRPP1ΔMTS
[8] = target: the molecule itself; test: SEC; analytical SEC of single proteins, Superdex S200 10/300 GL (or KW403-4F), apparent mass from standards of known Mr, n = 3
[9] = ligand concentration not in text, text says MTase domain, construct boundary not stated

Nc1ncnc2c1ncn2[C@@H]1O[C@H](CSCC[C@H](N)C(=O)O)[C@@H](O)[C@H]1O [S-adenosyl-homocysteine]
Tm shift (MRPP1MT+C(Δ194); [9]): 5.00 ± 0.18 °C

C[S+](CC[C@H](N)C(=O)O)C[C@H]1O[C@@H](n2cnc3c(N)ncnc32)[C@H](O)[C@@H]1O (stereo partly drawn) [SAM, S-adenosyl-L-methionine]
Tm shift [1]: retained their ability to bind the cofactor (NADH) and methyl donor (SAM)
X-ray crystal structure, 1.96 Å (MRPP1MT+C(Δ202)): Each MRPP1MT subunit is bound by a SAM molecule
Tm shift (MRPP1ΔMTS): 6.04 ± 0.09 °C
Tm shift (MRPP1MT+C(Δ194); 7.5 mM SAM): 9.75 ± 0.48 °C

Nc1ncnc2c1ncn2[C@@H]1O[C@H](CO)[C@@H](OP(=O)(O)O)[C@H]1O [3′-AMP]
Tm shift (MRPP1MT+C(Δ194); [9]): 3.65 ± 0.16 °C

MRPP1N (N domain of MRPP1), expressed alone (from UniProt Q7L0Y3 40-203) (domain or fragment)
stoichiometry N [2]: 2

NC(=O)C1=CN([C@@H]2O[C@H](COP(=O)(O)OP(=O)(O)OC[C@H]3O[C@@H](n4cnc5c(N)ncnc54)[C@H](O)[C@@H]3O)[C@@H](O)[C@H]2O)C=CC1 [NADH]
Tm shift [3]: retained their ability to bind the cofactor (NADH) and methyl donor (SAM)

B1: MRPP2, untagged, co-expressed with His-tagged MRPP1 constructs (bicistronic plasmid), Q99714 1-261 (natural protein)
chain: MAAACRSVKGLVAVITGGASGLGLATAERLVGQGASAVLLDLPNSGGEAQAKKLGNNCVFAPADVTSEKDVQTALALAKGKFGRVDVAVNCAGIAVASKTYNLKKGQTHTLEDFQRVLDVNLMGTFNVIRLVAGEMGQNEPDQGGQRGVIINTASVAAFEGQVGQAAYSASKGGIVGMTLPIARDLAPIGIRVMTIAPGLFGTPLLTSLPEKVCNFLASQVPFPSRLGDPAEYAHLVQAIIENPFLNGEVIRLDGAIRMQP
stoichiometry N [4]: 4

B2: MRPP2 (HSD17B10), expressed alone, tag removed, Q99714 1-261 (natural protein)
chain: MAAACRSVKGLVAVITGGASGLGLATAERLVGQGASAVLLDLPNSGGEAQAKKLGNNCVFAPADVTSEKDVQTALALAKGKFGRVDVAVNCAGIAVASKTYNLKKGQTHTLEDFQRVLDVNLMGTFNVIRLVAGEMGQNEPDQGGQRGVIINTASVAAFEGQVGQAAYSASKGGIVGMTLPIARDLAPIGIRVMTIAPGLFGTPLLTSLPEKVCNFLASQVPFPSRLGDPAEYAHLVQAIIENPFLNGEVIRLDGAIRMQP
stoichiometry N [5]: 4

B3: MRPP2 (Homo sapiens) (protein)
chain: AAACRSVKGLVAVITGGASGLGLATAERLVGQGASAVLLDLPNSGGEAQAKKLGNNCVFAPADVTSEKDVQTALALAKGKFGRVDVAVNCAGIAVASKTYNLKKGQTHTLEDFQRVLDVNLMGTFNVIRLVAGEMGQNEPDQGGQRGVIINTASVAAFEGQVGQAAYSASKGGIVGMTLPIARDLAPIGIRVMTIAPGLFGTPLLTSLPEKVCNFLASQVPFPSRLGDPAEYAHLVQAIIENPFLNGEVIRLDGAIRMQP
notes: full-length MRPP2, N-terminal His6 (pNIC28-Bsa4), TEV treated, E. coli; homotetramer
Km [6]: 7.70 ± 0.50 µM

B4: MRPP1ΔMTS–MRPP2 complex (SDR activity of MRPP2) (Homo sapiens) (protein)
chain: AAACRSVKGLVAVITGGASGLGLATAERLVGQGASAVLLDLPNSGGEAQAKKLGNNCVFAPADVTSEKDVQTALALAKGKFGRVDVAVNCAGIAVASKTYNLKKGQTHTLEDFQRVLDVNLMGTFNVIRLVAGEMGQNEPDQGGQRGVIINTASVAAFEGQVGQAAYSASKGGIVGMTLPIARDLAPIGIRVMTIAPGLFGTPLLTSLPEKVCNFLASQVPFPSRLGDPAEYAHLVQAIIENPFLNGEVIRLDGAIRMQP
notes: co-expressed in E. coli; His-tagged mature MRPP1 (40-403) and untagged full-length MRPP2; 2:4 complex, 194 kDa by SEC-MALS; with tRNA methyltransferase 10 homolog C
Km [7]: 3.40 ± 0.40 µM

B5: MRPP1_(ΔMTS) (mature mitochondrial RNase P protein 1, aa 40–403), expressed alone (natural protein, human, UniProt Q7L0Y3 40-403, looked up)
chain: MSSKIPAVTYPKNESTPPSEELELDKWKTTMKSSVQEECVSTISSSKDEDPLAATREFIEMWRLLGREVPEHITEEELKTLMECVSNTAKKKYLKYLYTKEKVKKARQIKKEMKAAAREEAKNIKLLETTEEDKQKNFLFLRLWDRNMDIAMGWKGAQAMQFGQPLVFDMAYENYMKRKELQNTVSQLLESEGWNRRNVDPFHIYFCNLKIDGALHRELVKRYQEKWDKLLLTSTEKSHVDLFPKDSIIYLTADSPNVMTTFRHDKVYVIGSFVDKSMQPGTSLAKAKRLNLATECLPLDKYLQWEIGNKNLTLDQMIRILLCLKNNGNWQEALQFVPKRKHTGFLEISQHSQEFINRLKKAKT
notes: human MRPP1 (TRMT10C/RG9MTD1), 403 aa precursor; residues 40-403, without the mitochondrial targeting signal (1-39); In solution a mixture of monomer and dimer; also called TRMT10C; RG9MTD1; source: E. coli BL21(DE3)-R3-pRARE2, purified
stoichiometry N [8]: 2
